For assay [1], the target named is T1, BTK (Homo sapiens, UniProt Q06187).
T1 construct: purchased Invitrogen PV3190
The experiment in a line: BTK inhibitory activity, Z-Lyte Kinase Assay Kit. The format is biochemical. As to conditions: 60 minutes at room temperature, BTK enzyme (Invitrogen PV3190). As to the method:
(§1) Evaluation of JAK3 and BTK Inhibitory Activity
(§2) The compounds prepared in Examples 1 to 20 were tested for JAK3 and BTK inhibitory activity. Kinase inhibitory activity was measured by using Z-Lyte Kinase Assay Kit (Invitrogen), and JAK3 and BTK enzymes were purchased from Invitrogen (PV3855, PV3190).
(§3) Specifically, the compounds of Examples 1 to 20 were diluted with a 4% aqueous solution of DMSO to obtain solutions with concentrations in the range of 1˜0.0001 μM. Each kinase was diluted to 1˜10 ng/assay, and ATP was diluted to form a kinase buffer (50 mM HEPES, pH 7.4; 10 mM MgCl2; 1 mM EGTA; 0.01% BRIJ-35) by calculating an approximate Kd value. The assays were performed in 384-well polystyrene flat-bottomed plates. 5 μL of the diluted solution of the compound, peptide substrate having a suitable concentration, 10 μL of mixed kinase solution and 5 μL of ATP solution having a concentration of 5 to 300 μM were added to the sample, and allowed to react in a mixer for 60 minutes at room temperature. After 60 minutes, 10 μL of fluorescent labeling reagents was added to each mixture so as to allow fluorescent labeling of peptide substrates, followed by adding a finishing solution to complete the reaction. The fluorescence level was measured using a Molecular Device with an excitation filter at 400 nm, and an emission filter at 520 nm. The kinase inhibitory activities of the compounds were calculated in phosphorylation rates between 0˜100% against the control group (staurosporine or each of kinase inhibitor) with reference to the protocol of the kit, and percentage inhibition was calculated and plotted against concentration (x-axis) to calculate 50% inhibitory concentration (IC50). The IC50 values were obtained by using Microsoft Excel, and the results are shown in Table 5, wherein A: IC50≦50 nM, B: IC50=50˜100 nM, C: IC50=100˜1,000 nM, and D: IC50≧1,000 nM.

Assay [2] deals with T2, JAK3 (Homo sapiens, UniProt P52333).
T2 construct: purchased Invitrogen PV3855
T2 sequence (P52333 781-1124 limits assumed): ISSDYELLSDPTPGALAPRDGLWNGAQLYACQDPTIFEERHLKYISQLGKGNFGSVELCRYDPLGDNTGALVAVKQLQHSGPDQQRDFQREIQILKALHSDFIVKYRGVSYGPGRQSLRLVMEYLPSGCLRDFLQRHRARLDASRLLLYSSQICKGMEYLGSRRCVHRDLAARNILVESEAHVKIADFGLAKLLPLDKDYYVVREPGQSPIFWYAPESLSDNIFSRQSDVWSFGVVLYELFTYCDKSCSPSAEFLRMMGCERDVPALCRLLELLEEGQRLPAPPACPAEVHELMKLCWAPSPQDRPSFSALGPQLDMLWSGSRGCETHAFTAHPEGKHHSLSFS
The experiment in a line: JAK3 inhibitory activity, Z-Lyte Kinase Assay Kit. The class given is biochemical. The settings on record: 60 minutes at room temperature, JAK3 enzyme (Invitrogen PV3855). As to the method:
as §1, §2, §3

Here are results for 20 compounds from patent US20150299185A1, “NOVEL IMIDAZOPYRIDINE DERIVATIVES AS A TYROSINE KINASE INHIBITOR” (HANMI PHARM. CO., LTD., priority 2011, published 2015).

Each structure is given as a SMILES string.

T1 sequence (Q06187 whole entry): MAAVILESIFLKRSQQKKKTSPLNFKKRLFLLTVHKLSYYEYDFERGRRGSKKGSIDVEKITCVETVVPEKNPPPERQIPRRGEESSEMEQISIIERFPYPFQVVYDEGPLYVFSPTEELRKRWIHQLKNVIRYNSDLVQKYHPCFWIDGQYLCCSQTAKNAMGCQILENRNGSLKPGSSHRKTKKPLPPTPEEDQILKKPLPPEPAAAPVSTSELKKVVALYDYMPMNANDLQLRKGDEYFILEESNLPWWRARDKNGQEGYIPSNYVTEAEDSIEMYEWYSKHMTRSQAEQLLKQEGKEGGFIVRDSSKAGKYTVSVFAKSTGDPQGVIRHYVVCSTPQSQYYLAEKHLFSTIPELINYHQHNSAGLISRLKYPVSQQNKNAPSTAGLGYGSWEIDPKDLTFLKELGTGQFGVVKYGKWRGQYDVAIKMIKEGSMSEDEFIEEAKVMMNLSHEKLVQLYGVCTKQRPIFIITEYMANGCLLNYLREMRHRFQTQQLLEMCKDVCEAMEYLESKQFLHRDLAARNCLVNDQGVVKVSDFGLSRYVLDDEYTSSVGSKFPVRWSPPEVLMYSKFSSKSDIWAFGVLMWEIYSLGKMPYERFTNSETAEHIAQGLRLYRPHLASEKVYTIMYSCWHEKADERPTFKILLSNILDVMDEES

Consider `C=CC(=O)Nc1cccc(Oc2c(Cl)cnc3[nH]c(-c4ccc(N5CCN(C)CC5)cc4)nc23)c1` [Example 1, N-(3-(6-chloro-2-(4-(4-methylpiperazin-1-yl)phenyl)-3H-imidazo[4,5-b]pyridin-7-yloxy)phenyl)acrylamide], for which the results for the IC50 in assay [1] and in assay [2] were ≤ 50 nM and 50 to 100 nM, respectively. `C=CC(=O)Nc1cccc(Oc2c(Cl)cnc3[nH]c(-c4ccc(N5CCC(O)CC5)cc4)nc23)c1` [Example 2, N-(3-(6-chloro-2-(4-(4-hydroxypiperidin-1-yl)phenyl)-3H-imidazo[4,5-b]pyridin-7-yloxy)phenyl)acrylamide]: the IC50 – broadly, the midpoint of a concentration-inhibition curve – lay in the range of 50 to 100 nM in assay [1] and 100 to 1000 nM in assay [2]. Regarding `C=CC(=O)Nc1cccc(Oc2c(Cl)cnc3[nH]c(-c4ccc(C(=O)N5CCN(C)CC5)cc4)nc23)c1` [Example 3, N-(3-(6-chloro-2-(4-(4-methylpiperazin-1-carbonyl)phenyl)-3H-imidazo[4,5-b]pyridin-7-yloxy)phenyl)acrylamide], the IC50 is ≤ 50 nM in assay [1] and 100 to 1000 nM in assay [2]. Take `C=CC(=O)Nc1cccc(Oc2c(Cl)cnc3[nH]c(-c4ccc(C(=O)N5CCOCC5)cc4)nc23)c1` [Example 4, N-(3-(6-chloro-2-(4-(morpholin-4-carbonyl)phenyl)-3H-imidazo[4,5-b]pyridin-7-yloxy)phenyl)acrylamide]: the IC50 in assay [1] is ≤ 50 nM. For `C=CC(=O)Nc1cccc(Oc2c(Cl)cnc3[nH]c(-c4ccc(NC5CCN(C)CC5)cc4)nc23)c1` [Example 5, N-(3-(6-chloro-2-(4-(1-methylpiperidin-4-ylamino)phenyl)-3H-imidazo[4,5-b]pyridin-7-yloxy)phenyl)acrylamide], the 50% inhibitory concentration (IC50) in assay [1] and in assay [2] was ≤ 50 nM each time. In turn, `C=CC(=O)Nc1cccc(Oc2c(Cl)cnc3[nH]c(-c4ccc(N(C)C)cc4)nc23)c1` [Example 6, N-(3-(6-chloro-2-(4-(dimethylamino)phenyl)-3H-imidazo[4,5-b]pyridin-7-yloxy)phenyl)acrylamide] returned a concentration for half-maximal inhibition (IC50) in assay [1] of 100 to 1000 nM. Consider `C=CC(=O)Nc1cccc(Oc2c(Cl)cnc3[nH]c(-c4ccc([S+](C)[O-])cc4)nc23)c1` (stereo not shown) [Example 7, N-(3-(6-chloro-2-(4-(methylsulphinyl)phenyl)-3H-imidazo[4,5-b]pyridin-7-yloxy)phenyl)acrylamide], for which the IC50 in assay [1] was ≤ 50 nM.

For `C=CC(=O)Nc1cccc(Oc2c(Cl)cnc3[nH]c(-c4ccc(C(=O)N(C)C)cc4)nc23)c1` [Example 8, 4-(7-(3-acrylamidophenoxy)-6-chloro-3H-imidazo[4,5-b]pyridin-2-yl)-N,N-dimethylbenzamide], the IC50 is ≤ 50 nM in assay [1] and 50 to 100 nM in assay [2].

In assay [1], `C=CC(=O)Nc1cccc(Oc2c(Cl)cnc3[nH]c(-c4ccc(C(=O)O)cc4)nc23)c1` [Example 9, 4-(7-(3-acrylamidophenoxy)-6-chloro-3H-imidazo[4,5-b]pyridin-2-yl)-benzoic acid] came in with an IC50 of 100 to 1000 nM.

On to `C=CC(=O)Nc1cccc(Oc2c(Cl)cnc3[nH]c(-c4ccc(C(=O)NC5CCN(C)CC5)cc4)nc23)c1` [Example 10, 4-(7-(3-acrylamidophenoxy)-6-chloro-3H-imidazo[4,5-b]pyridin-2-yl)-N-(1-methylpiperidin-4-yl)benzamide], for which the IC50 in assay [1] was 50 to 100 nM. With `C=CC(=O)Nc1cccc(Oc2c(Cl)cnc3[nH]c(-c4ccc(CN(C)C)cc4)nc23)c1` [Example 11, N-(3-(6-chloro-2-(4-((dimethylamino)methyl)phenyl)-3H-imidazo[4,5-b]pyridin-7-yloxy)phenyl)acrylamide], the IC50 in assay [1] and in assay [2] was ≤ 50 nM each time. Regarding `C=CC(=O)Nc1cccc(Oc2c(Cl)cnc3[nH]c(-c4ccc(CN(C)CC)cc4)nc23)c1` [Example 12, N-(3-(6-chloro-2-(4-((ethyl(methyl)amino)methyl)phenyl)-3H-imidazo[4,5-b]pyridin-7-yloxy)phenyl)acrylamide], the half-inhibitory concentration (IC50) in assay [1] and in assay [2] was ≤ 50 nM throughout. Regarding `C=CC(=O)Nc1cccc(Oc2c(Cl)cnc3[nH]c(-c4ccc(CN(CC)CC)cc4)nc23)c1` [Example 13, N-(3-(6-chloro-2-(4-((diethylamino)methyl)phenyl)-3H-imidazo[4,5-b]pyridin-7-yloxy)phenyl)acrylamide], the IC50 in assay [1] and in assay [2] was ≤ 50 nM throughout. `C=CC(=O)Nc1cccc(Oc2c(Cl)cnc3[nH]c(-c4ccc(CN5CCCC5)cc4)nc23)c1` [Example 14, N-(3-(6-chloro-2-(4-(pyrroldin-1-ylmethyl)phenyl)-3H-imidazo[4,5-b]pyridin-7-yloxy)phenyl)acrylamide]: the IC50 in assay [1] and in assay [2] was ≤ 50 nM each time. Turning to `C=CC(=O)Nc1cccc(Oc2c(Cl)cnc3[nH]c(-c4ccc(CN5CCCCC5)cc4)nc23)c1` [Example 15, N-(3-(6-chloro-2-(4-(piperidin-1-ylmethyl)phenyl)-3H-imidazo[4,5-b]pyridin-7-yloxy)phenyl)acrylamide], the IC50 in assay [1] and in assay [2] was ≤ 50 nM each time.

On to `C=CC(=O)Nc1cccc(Oc2c(Cl)cnc3[nH]c(-c4ccc(CN5CCOCC5)cc4)nc23)c1` [Example 16, N-(3-(6-chloro-2-(4-(morpholinomethyl)phenyl)-3H-imidazo[4,5-b]pyridin-7-yloxy)phenyl)acrylamide], for which the IC50 in assay [1] is 50 to 100 nM; in assay [2], ≤ 50 nM. In the case of `C=CC(=O)Nc1cccc(Oc2c(Cl)cnc3[nH]c(-c4ccc(CN5CCN(C)CC5)cc4)nc23)c1` [Example 17, N-(3-(6-chloro-2-(4-((4-methylpiperazin-1-yl)methyl)phenyl)-3H-imidazo[4,5-b]pyridin-7-yloxy)phenyl)acrylamide], the IC50 in assay [1] was 50 to 100 nM; in assay [2], ≤ 50 nM.

In assay [1], `C=CC(=O)Nc1cccc(Oc2c(Cl)cnc3[nH]c(-c4ccc(OC)cc4)nc23)c1` [Example 18, N-(3-(6-chloro-2-(4-methoxyphenyl)-3H-imidazo[4,5-b]pyridin-7-yloxy)phenyl)acrylamide] had an IC50 of 100 to 1000 nM. In the case of `C=CC(=O)Nc1cccc(Oc2c(Cl)cnc3[nH]c(-c4ccncc4)nc23)c1` [Example 19, N-(3-(6-chloro-2-(pyridin-4-yl)-3H-imidazo[4,5-b]pyridin-7-yloxy)phenyl)acrylamide], the IC50 in assay [1] is 100 to 1000 nM; in assay [2], ≤ 50 nM. In the case of `C=CC(=O)Nc1cccc(Oc2ccnc3[nH]c(-c4ccc(N5CCN(C)CC5)cc4)nc23)c1` [Example 20, N-(3-(2-(4-(4-methylpiperazin-1-yl)phenyl)-3H-imidazo[4,5-b]pyridin-7-yloxy)phenyl)acrylamide], the IC50 in assay [1] and in assay [2] was 100 to 1000 nM in each case.
